Columns and labels:
[1] = Preclinical oral bioavailability and urinary excretion of 4-OH-Ile in PROMILIN; format: in vivo, rat; conditions: rats
Procedure: In addition to the human clinical portion of the study, preclinical trials were conducted in rats to assess if the 4-OH-Ile in PROMILIN™ is orally bioavailable to rats and if it is excreted in their urine.

pancreatic beta cell = conditions: major isomer (2S,3R,4S), micromolar concentrations, glucose dependent; cited from earlier work

oral bioavailability ([1]; 4-OH-Ile in PROMILIN, oral): bioavailable
time to absorption from the gut into the circulation ([1]; both diastereomers, after oral gavage of PROMILIN): ≤ 15 min
urinary excretion ([1]; both isomers): excreted in the urine
appearance of 4-OH-Ile in the circulation ([1]; coadministration of glucose and PROMILIN): slowed the appearance
Structure (SMILES): CC(O)C(C)C(N)C(=O)O (racemic) [4-OH-Ile, 4-hydroxyisoleucine]
glucose-induced insulin secretion (pancreatic beta cell): stimulate glucose-induced insulin secretion

— US20090076111A1, “Methods for improving glycemic control in humans” (priority 2004, published 2009)
